Key:
[1] = 100 Day Potency Test of transdermal cream including meloxicam, topiramate, lidocaine, and prilocaine; type: physicochemical; settings: 100 days, stored at approximately 20° C. to 25° C., in cream, HPLC; for % of EXP.: relative to expected amount
Protocol: (§1) The sample was stored in approximately 20° C. to 25° C. (68° F. to 77° F.) conditions, and contained one large white tube with cream in a clear bag.

[2] = 198 Day Potency Test of transdermal cream including meloxicam, lamotrigine, lidocaine, and prilocaine; type: physicochemical; settings: 198 days, stored at approximately 20° C. to 25° C., in cream, HPLC; for % of EXP.: relative to expected amount
Protocol: as §1

[3] = Forced degradation study (heat and acid) on Meloxicam/Gabapentin/Lidocaine/Prilocaine Cream 0.09%/2.5%/2.15%/2.15%; settings: untreated, heat treated and acid treated samples, undiluted extracts
Protocol: (§2) The column temperature was 50° C.
as §2

Compound	Results (amount of analyte found) [1] [%]	% of EXP. [1] [%]	Results (amount of analyte found) [2] [%]	% of EXP. [2] [%]	Degradation seen in Total Ion Chromatograms (TIC) [3]
CC1(C)O[C@@H]2[C@@H](CO[C@@]3(COS(N)(=O)=O)OC(C)(C)O[C@@H]23)O1 [Topiramate]	2.368	94.7	–	–	–
CCCNC(C)C(=O)Nc1ccccc1C (stereo not shown) [Prilocaine]	1.899	95.0	2.118	105.9	–
NCC1(CC(=O)O)CCCCC1 [Gabapentin]	–	–	–	–	major degradant at 1.18 minute was caused both by acid and by heat
CCN(CC)CC(=O)Nc1c(C)cccc1C [Lidocaine]	1.700	85.0	1.927	96.4	–
Nc1nnc(-c2cccc(Cl)c2Cl)c(N)n1 [Lamotrigine]	–	–	2.463	98.5	–
